One data set addresses T1, HDAC6 (Homo sapiens, UniProt Q9UBN7).
T1 construct: purchased Enzo Life Sciences
T1 sequence (Q9UBN7 1-1215): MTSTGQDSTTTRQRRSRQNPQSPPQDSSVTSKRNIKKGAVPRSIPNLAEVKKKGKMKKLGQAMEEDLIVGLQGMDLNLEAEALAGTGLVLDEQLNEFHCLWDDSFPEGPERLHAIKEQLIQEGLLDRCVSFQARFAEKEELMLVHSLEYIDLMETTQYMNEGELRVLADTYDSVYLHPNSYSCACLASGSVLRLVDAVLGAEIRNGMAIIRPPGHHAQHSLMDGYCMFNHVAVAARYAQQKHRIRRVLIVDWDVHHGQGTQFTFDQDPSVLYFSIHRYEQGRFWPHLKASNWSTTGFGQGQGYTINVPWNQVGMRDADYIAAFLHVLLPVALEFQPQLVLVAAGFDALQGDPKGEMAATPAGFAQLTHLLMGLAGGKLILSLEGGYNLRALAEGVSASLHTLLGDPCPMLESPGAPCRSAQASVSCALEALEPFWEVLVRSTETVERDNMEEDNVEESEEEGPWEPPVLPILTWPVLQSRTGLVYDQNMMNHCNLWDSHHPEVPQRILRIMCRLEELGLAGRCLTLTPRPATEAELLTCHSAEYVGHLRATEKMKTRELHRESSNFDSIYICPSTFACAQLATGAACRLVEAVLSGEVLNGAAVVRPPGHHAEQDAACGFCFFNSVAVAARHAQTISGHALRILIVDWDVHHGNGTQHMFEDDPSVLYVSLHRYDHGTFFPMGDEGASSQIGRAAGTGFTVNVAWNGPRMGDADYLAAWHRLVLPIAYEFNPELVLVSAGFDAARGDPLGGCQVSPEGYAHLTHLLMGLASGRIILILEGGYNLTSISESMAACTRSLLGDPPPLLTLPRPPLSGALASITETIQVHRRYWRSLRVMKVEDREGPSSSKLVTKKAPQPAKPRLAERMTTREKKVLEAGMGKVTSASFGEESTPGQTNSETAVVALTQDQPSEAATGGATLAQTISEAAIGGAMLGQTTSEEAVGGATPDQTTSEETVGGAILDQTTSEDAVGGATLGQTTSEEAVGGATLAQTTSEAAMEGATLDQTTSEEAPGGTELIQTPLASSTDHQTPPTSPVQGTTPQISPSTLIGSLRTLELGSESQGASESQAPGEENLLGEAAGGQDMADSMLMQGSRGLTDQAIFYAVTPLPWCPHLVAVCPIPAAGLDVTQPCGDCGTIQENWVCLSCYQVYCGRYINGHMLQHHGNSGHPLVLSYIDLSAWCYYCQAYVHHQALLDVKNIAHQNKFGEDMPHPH
The experiment in a line: Fluorimetric measurement of HDAC6 activity (FLUOR DE LYS kit). It is filed as biochemical.

The nature of data set [1]: DPPH radical scavenging activity. The following applies: Trolox equivalent; compounds and Trolox 100 µM. An excerpt: (§1) DPPH is a stable chromogen radical, which is widely used to assess the antioxidant activity of biological objects, in particular when searching for potential therapeutic agents used to maintain the redox balance in the body and treat pathologies associated with the action of free radicals. In turn, the oxygen radical absorbance capacity (ORAC) analysis is based on the removal by potential antioxidants of peroxyl radicals generated by AAPH (2,2’-axobis-2-methyl-propanimidamide, dihydrochloride), preventing the degradation of the fluorescein probe.
The measurement of the antiradical activity of synthesized hydroxamic acids was carried out using the method described in [150]. The studied compounds were introduced into the wells of a 96-well black tablet (the final concentration was 100 microns), after which a freshly prepared solution of 2,2-diphenyl-1-picrylhydrazyl (Sigma Aldrich, St. Louis, Missouri, USA) was added. After the incubation time had elapsed, the DPPH radical-scavenging activity was measured using a multifunctional Cytation™3 tablet analyzer (BioTek Instruments, Inc., Winooski, VT, USA) at λ = 517 nm by the difference in the reduction of the DPPH radical peak between control samples containing an equivalent volume of solvent and samples with the substances under study.
For orientation: DPPH is a stable violet radical that fades when it is reduced.

A short description of data set [2]: Oxygen radical absorbance capacity (ORAC). To be noted: Trolox equivalent; compounds and Trolox 100 µM, AAPH 12 mM.
Source text: as §1
The analysis of the absorption capacity of oxygen radicals was performed as described in [151], with some modifications. Trolox (Sigma Aldrich, St. Louis, MI, USA) was used as a standard antioxidant. The studied compounds were introduced into the holes of a 96-hole black tablet with a transparent bottom with Trolox (25 µL; the final concentration was 100 µM) and fluorescein (150 µL; the final concentration was 80 nM, Sigma Aldrich, St. Louis, MI, USA). The resulting mixture was shaken and incubated for 30 min at 37 °C. After a 30-min incubation period, a solution of 2,2’-azobis (2-amidinopropane) dihydrochloride (AAPH) (25 µL; final concentration of 12 mM, Sigma Aldrich, St. Louis, MI, USA) was quickly introduced into all wells of the tablet. The tablet was immediately placed in a multifunctional tablet analyzer Cytation™ 3 (BioTek Instruments, Inc., Winooski, VT, USA). The fluorescence intensity was recorded for 300 min at λex = 480 nm, λem = 520 nm with an interval of every 5 min. In the same experiment, calibration solutions for the reference antioxidant Trolox were used to confirm the validity of the use of this method (0, 6.25, 12.5, 25, 50 and 100 µM).

For data set [3], the target named is T2, β-amyloid peptide 1-42 (Aβ1-42) (Homo sapiens, UniProt P05067).
T2 construct: the pathological form of β-amyloid peptide 1-42 (Sigma Aldrich); purchased Sigma Aldrich
T2 sequence (P05067 672-713 limits assumed): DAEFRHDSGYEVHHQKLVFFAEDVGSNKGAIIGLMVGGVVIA
The experiment in a line: Thioflavin T fluorescent analysis of Aβ1-42 aggregation. The following applies: 48 h, compounds 100 µM, Thioflavin T 10 µM, 48 h registration; read-out: prevention of the aggregation of Aβ1-42. It is filed as biochemical. An excerpt: The aggregation process of β-amyloid peptide 1-42 (Aβ1-42), caused by hydrophobic interactions of peptide monomers and, as a consequence, the formation of the most toxic polymorphic structure-oligomeric fragments of Aβ, was detected using the fluorescent dye Thioflavin T (Figure 4a). This method is the most widely used for selective staining and the identification of amyloid aggregates, which is confirmed by a large number of works. Fluorescence analysis using Thioflavin T made it possible to monitor the aggregation process of the pathological form of β-amyloid peptide 1-42 (Sigma Aldrich, St. Louis, MI, USA). The experimental protocol was carried out similarly to that described in [58] with some modifications. The registration of changes in the fluorescence of thioflavin T (10 µM, Sigma Aldrich, St. Louis, MI, USA) was performed on a multifunctional tablet analyzer Cytation™3 (BioTek Instruments, Inc., Winooski, VT, USA) at λex = 450 nm, λem = 480 nm. The fluorescence intensity of the solution without Aβ1-42 was subtracted from the fluorescence values of solutions containing protein, due to the need to subtract the background fluorescence.

Another data set can be described thus: Cell viability, MTT test. Type of data set: cell-based. The following applies: human, SH-SY5Y neuroblastoma cells, 24-h exposure, read-out: IC50 cytotoxic action. How it is done: The culture of human neuroblastoma cells (defined as SH-SY5Y) was cultured in DMEM with the addition of embryonic bovine serum (10%), 2 mM glutamine (DiaM, Moscow, Russia) and penicillin-streptomycin (100 U/Ml–100 µg/mL, PanEco, Moscow, Russia) in conditions of 5% CO2 in the air at 37 °C. Upon reaching 80% confluence, cells in the amount of 1 × 10^4 were placed in 96-well transparent plates and incubated under the same conditions for 24 h. After the incubation time, the cells were exposed to a 24-h exposure to various concentrations of hydroxamic acids dissolved in dimethyl sulfoxide (range from 1 to 100 µM). An equivalent volume of solvent was used as a control (final DMSO content = 1%).
Cell survival analysis was performed using MTT test. To do this, 3-(4,5-dimethylthiazol-2-yl)-2,5-diphenyltetrazolium bromide (MTT, 5 mg/mL, DiaM, Moscow, Russia) was introduced into all wells and incubated at 37 °C for 2 h to restore metabolically active cells of the yellow tetrazolium salt MTT to purple formazane crystals. The resulting formazane was then re-suspended in 200 µL DMSO per well. The optical density was recorded using a multifunctional Cytation™3 flatbed analyzer (BioTek Instruments, Inc., Winooski, VT, USA) at λ = 530 nm.
On the technique in general: Formazan colour is commonly taken as a measure of viable cells.

Where [4] appears, read: Table 1, read-out: HDAC6-Inhibitory Effect, IC50.
Setting [5] is: HDAC6, values as listed in Table S1 beside docking score, read-out: IC50.

One may read the IC50 as the point on the concentration scale where inhibition reaches its midpoint. The melting point is the temperature of the solid-liquid transition.

Read-outs that look alike come from different tables or passages of the source. Some results are limits rather than exact numbers.

With `CC1(C)[C@H]2CC[C@@H](CNC(=O)/C=C/c3ccc(C(=O)NO)cc3)[C@@H]1C2` [Compound 35c, 4-((E)-3-((((1S,2R,5S)-6,6-dimethylbicyclo[3.1.1]heptan-2-yl)methyl)amino)-3-oxoprop-1-en-1-yl)-N-hydroxybenzamide], the melting point lay in the range of 139.5 to 141.4 °C. The IC50 at HDAC6 (setting [4]) was found to be 6.9 ± 0.43 µM. Also, the “DPPH value (TE)” value in data set [1] stood at 0.71 TE. For the same compound, the “ORAC value (TE)” value in data set [2] came out at 1.02 TE. Moreover, in data set [3], the inhibition at 100 µM is at most 40%. Besides, the concentration for half-maximal inhibition (IC50) at 24 h in “Cell viability, MTT test” is 86.7 ± 1.45 µM.
As to `C=C(C)[C@@H]1CC=C(CNC(=O)c2ccc(/C=C/C(=O)NO)cc2)CC1` [Compound 38a, (S,E)-4-(3-(hydroxyamino)-3-oxoprop-1-en-1-yl)-N-((4-(prop-1-en-2-yl)cyclohex-1-en-1-yl)methyl)benzamide], the melting point was 167.2 to 167.6 °C. At HDAC6 (setting [5]), the IC50 is 7.74 µM. Further, in data set [1], the “DPPH value (TE)” value turned out to be 0.66 TE. Moreover, the “ORAC value (TE)” value in data set [2] turned out to be 1.00 TE. Also, the inhibition at 100 µM in data set [3] is 60.1%. Further, the IC50 at 24 h in the data set “Cell viability, MTT test” is above 100 µM.
Consider `CC(C)c1ccc(CNC(=O)c2ccc(/C=C/C(=O)NO)cc2)cc1` [Compound 38b, (E)-4-(3-(hydroxyamino)-3-oxoprop-1-en-1-yl)-N-(4-isopropylbenzyl)benzamide], for which the melting point lay in the range of 160.3 to 164.9 °C. Also, at HDAC6 (setting [4]), the IC50 stood at 4.78 ± 0.04 µM. The “DPPH value (TE)” value in data set [1] stood at 0.79 TE. In addition, in data set [2], the “ORAC value (TE)” value was 1.04 TE. For the same compound, the inhibition at 100 µM in data set [3] came to 63.9%. In addition, the IC50 at 24 h in “Cell viability, MTT test” was above 100 µM.
The compound `CC1(C)[C@H]2CC[C@@H](CNC(=O)c3ccc(/C=C/C(=O)NO)cc3)[C@@H]1C2` [Compound 38c, N-(((1S,2R,5S)-6,6-dimethylbicyclo[3.1.1]heptan-2-yl)methyl)-4-((E)-3-(hydroxyamino)-3-oxoprop-1-en-1-yl)benzamide] returned a melting point of 108.6 °C. For the same compound, the IC50 on HDAC6 (setting [5]) came to 8.03 µM. Also, in data set [1], the “DPPH value (TE)” value turned out to be 0.70 TE. For the same compound, in data set [2], the “ORAC value (TE)” value stood at 1.02 TE. In data set [3], the inhibition at 100 µM was at most 40%. Moreover, in the data set “Cell viability, MTT test”, the IC50 at 24 h came to 90.5 ± 2.9 µM.

The values are drawn from paper PMC10254045, “Elaboration of the Effective Multi-Target Therapeutic Platform for the Treatment of Alzheimer’s Disease Based on Novel Monoterpene-Derived Hydroxamic Acids” (International Journal of Molecular Sciences, 2023).
